Here are results for 64 compounds from a melting point compilation (Tetko et al.; mined from patent text by program, amines drawn as free bases though some values may be those of a salt).

In the case of `CCC(CC)n1cc(Br)nc(N2CCc3cc(OC)cc(Br)c32)c1=O`, the melting point was in the range of 133 to 135 °C.
On to `CN(C)CCc1c(CC(C#N)(c2ccccc2)c2ccccc2)c2ccccc2n1C`, for which the melting point is 133 to 136 °C.
For `ON=Cc1ccccc1-c1ccc2c(c1C=NO)OCO2` the value was 227 to 229 °C; for `NC(=O)C1CCN(c2ncncc2Br)CC1`, 188 to 190 °C; for `CCOC(=O)Cn1c2c(c3ccc(Cl)c(Cl)c31)CCN(C(=O)OC(C)(C)C)CC2`, 132 to 135 °C.
For `CSc1nn2c(N(C)C)cc(C)nc2c1S(=O)(=O)c1ccccc1` the value was > 230 °C.
The value for `COc1cc(OC)cc(-c2ccc(N(C)CCN(C)c3ccc(-c4cc(OC)cc(OC)c4)nc3)cn2)c1` was 139 to 141 °C; that for `COCC1c2ccccc2CCN1c1nc(Nc2ccc(F)cc2)nc(C)c1C` (centres undefined) was 193 to 195 °C.
In turn, `CC#CCOCCCCCCCCCCCCOC(=O)C1CC1` returned a melting point of 38 to 40 °C.
For `Nc1c(Cl)c(C(=O)O)nc(Cl)c1Br` the value was 201 to 202 °C; for `CC(C)(C)[Si](C)(C)O[C@H]1C=C(I)C(=O)C1`, 38.5 °C; for `Cc1cc(C(=O)CCCCCCCCC(=O)c2cc(C)c(O)c(C(C)(C)C)c2)cc(C(C)(C)C)c1O`, 165 to 168 °C.
The value for `N#Cc1ccc2cc(CCCc3cc4ccc(C#N)cc4o3)oc2c1` was 199 to 201 °C; that for `COC(=O)c1ccccc1S(=O)(=O)NC(=O)Nc1nc(OC)n(C)n1` was 177 to 180 °C; that for `O=c1nc(NC(=S)Nc2ccccc2)c(F)cn1S(=O)(=O)c1ccccc1` was 205 to 208 °C.
The compound `Cc1ccc(S(=O)(=O)N2[C@@H](c3nnn(C)n3)CC[C@H]2c2ccc(F)cc2)cc1` (racemic) returned a melting point of 150 °C.
In turn, `COc1ccc(N2CCN(C3CCNCC3)C2=O)cc1` displayed a melting point of 140 °C.
In turn, `Cc1nc2cc(NC(=O)c3cc4cc(F)ncc4n3Cc3cccc(F)c3)ccc2s1` gave a melting point of 193 to 195 °C.
The compound `CC(C)(C)c1cc(C(=O)Oc2ccc(C(=O)c3cc(C(C)(C)C)c(O)c(C(C)(C)C)c3)c(O)c2)cc(C(C)(C)C)c1O` registered a melting point of 120 to 122 °C.
The value for `CCCCC(=NNC(N)=S)OCC` was 73 to 74.5 °C; that for `CC(C(=O)c1ccco1)N1CCN(c2ccc(CO)c(Cl)c2)CC1` (centres undefined) was 95 to 98 °C; that for `O=S(=O)(c1ccc(Br)s1)N1CCN(c2ccc(F)cc2)CC1` was 123 to 124 °C.
The value for `CC12CC(O)CCC1CCC1C2CCC2(C)C(O)C(N3CCCCC3)CC12` (centres undefined) was 215 to 219 °C; that for `CCN(C)c1ccc2c(c1)CN(c1cccc(Br)c1COC(C)=O)C2=O` was 97 to 99 °C.
The value for `CC(C)(C)OC(=O)CN1CCN(c2ccnc(C#N)c2)C1=O` was 139 to 140 °C; that for `COC(=O)c1cc(Br)n2c1CN(C(=O)OC(C)(C)C)CC2` was 109 °C; that for `NC(CNCCO)(CC(=O)O)c1ccccc1` (centres undefined) was 140 to 143 °C.
`COCCOc1ccc([N+](=O)[O-])cc1F` displayed a melting point of 62 to 63 °C.
The value for `CC(C)c1ccc(C(=O)C2CCc3ccccc3C2)c(C(C)C)c1OS(N)(=O)=O` (centres undefined) was 137 to 139 °C; that for `CCc1nc2c(ccc3nc(C)c(C)nc32)cc1C` was 137 to 138 °C; that for `COc1ccc(-c2cnoc2-c2ccc(OC(C)C)cc2O)cc1` was 148 to 149 °C.
In the case of `CCc1cc(C(=O)O)c(OC(C)=O)cc1C`, the melting point lay in the range of 132 to 134 °C.
Regarding `CCOC(=O)c1nccn1CCCCc1ccc(OCc2coc(/C=C/c3ccccc3)n2)cc1`, the melting point lay within 96 to 97 °C.
Consider `Clc1cc(Cl)c2c(c1)[nH]c1c2ccc2cc[nH]c21`, for which the melting point is > 250 °C.
As for `O=C1CCN(Cc2ccccc2)C(=O)C1=C1SC=CS1`, the melting point is 122 to 124 °C.
Compound `CSc1ccc(C2NC(C(=O)O)C(C)(C)S2)cc1` (centres undefined) had a melting point of 150 to 152 °C.
In the case of `CC(C)(C)Oc1ccc(C(=O)N[C@H]2CC[C@H](CCN3CCN(c4nccc5c4OCC5)CC3)CC2)cc1`, the melting point worked out at 168 °C.
For `N#CN1CCC(c2nn(C(=O)c3ccccc3)c3ccccc23)CC1` the value was 144 to 146 °C; for `CCc1cnc(N2CCN(C(=O)c3ccccc3NC3=c4ccccc4=NCN3c3ccccc3)CC2)nc1`, 204 to 205 °C; for `OC(CN1CC=C(c2ccc(Cl)cc2)CC1)c1ccc(Cc2ccc(Cl)cc2)cc1` (centres undefined), 149 to 152 °C.
For the compound `CCC(CC)C1CC(=O)C(C(=O)NS(=O)(=O)c2ccc(Cl)cc2)C(=O)C1` (centres undefined), the melting point lay within 121 to 122 °C.
For `Cc1ccc(OCc2c(F)cccc2Cl)c(NC(=S)Nc2ccc(Cl)cc2)n1` the value was 204 to 205 °C; for `COc1ccccc1N1CCC(CNC[C@H]2COc3ccccc3O2)CC1`, 78 to 79 °C; for `Cc1ccccc1C=Cc1ccccc1`, 92 to 93 °C.
Compound `CC1(C)OC(C)(C)C(=NO)C1=NO` displayed a melting point of 252 °C.
The value for `Cc1nc(-c2ccc(C#N)cc2)sc1C(=O)O` was 235 to 250 °C; that for `Cc1c(F)cc(C(=O)O)c(Cl)c1Cl` was 179 to 180 °C.
For `CC(C)(C)OC(=O)NCCCn1cnc2c(N)nc3ccccc3c21` the value was 196 to 198 °C; for `COc1ccc(C(=O)Nc2ccccc2)cc1NS(=O)(=O)c1ccccc1`, 190 to 194 °C.
The value for `Fc1c(F)c(Br)c2nsnc2c1Br` was 148 to 149 °C; that for `O=C(NCc1ccc(OCCN2CCCC2)cc1)c1ccc2c(c1)OCO2` was 93.5 to 94.5 °C; that for `Cc1nnc(-c2ccc3ncn(-c4cccc(C(F)(F)F)c4)c3c2)o1` was 212 to 213 °C.
For the compound `CCOC(=O)NNc1cc(C)c(-c2ccc(Br)cc2)nn1`, the melting point was 178 to 179 °C.
Regarding `COc1ccc(CC2SC(=O)NC2=O)c2c1N(Cc1ccc(C(=O)Nc3ccc(C(C)C)cc3)cc1)C(=O)CC2` (centres undefined), the melting point lay in the range of 243 to 244 °C.
The value for `CC(=O)C(CCC(=O)O)(CCC(=O)O)C(C)=O` was 176 °C.
For `O=C(OC1COCCC1=O)c1ccccc1` (centres undefined) the value was 76 to 77 °C; for `N#CC(=NNc1ccc(C2=NNC(=O)CC2)cc1)C(N)=C(C#N)C#N`, > 300 °C; for `COc1ccc(C=CN(C)C)c([N+](=O)[O-])c1[N+](=O)[O-]`, 100 to 131 °C.
`O=c1[nH]nc(-c2cc(C(F)(F)F)cc(C(F)(F)F)c2)n1-c1cc(Cl)ccc1O` came in with a melting point of 275 to 278 °C.
For `COc1ccc(S(=O)(=O)C2(C(=O)O)CCN(Cc3ccc(Br)cc3)CC2)cc1` the value was 215 °C; for `CC(=O)Oc1cc2c(cc1C(C)(C)C)OC(C)(CCOc1ccc(CC3SC(=N)NC3=O)cc1)CC2` (centres undefined), 175 to 178 °C; for `CC(=C1SCCCS1)c1ccc(Oc2ccc(O)cc2)cc1`, 84.5 °C.
Turning to `O=C(CCN1C[C@@H](O)[C@H](Oc2ccccc2)C1)c1ccc(F)cc1` (relative stereo), the melting point was in the range of 77 to 80 °C.
With `COc1cc(NC(=O)N2CCOCN2)c(F)cc1Cl`, the melting point was in the range of 145 to 147 °C.

The term melting point denotes the temperature of the solid-liquid transition.
